# Reference: patent US20260325540A1 (priority 2023, published 2026)
# Tests used:
# MERS-CoV 3CLpro = MERS-CoV 3CLpro (Middle East respiratory syndrome-related coronavirus, UniProt K9N638); assay: biochemical; conditions: MERS IC50, 75 nM MERS-CoV 3CLpro, 6 μM peptide 1 substrate, 25° C., 1.5 hrs, pH 7.5
# SARS-CoV-2 3CLpro = SARS-CoV-2 3CLpro (Severe acute respiratory syndrome coronavirus 2, UniProt P0DTD1); assay: FRET based protease assay, SARS-CoV-2 3CL; format: biochemical, SARS-CoV-2 (strain BetaCoV/Wuhan/WIV04/2019)
# Chain of MERS-CoV 3CLpro (K9N638 3248-3553 limits assumed): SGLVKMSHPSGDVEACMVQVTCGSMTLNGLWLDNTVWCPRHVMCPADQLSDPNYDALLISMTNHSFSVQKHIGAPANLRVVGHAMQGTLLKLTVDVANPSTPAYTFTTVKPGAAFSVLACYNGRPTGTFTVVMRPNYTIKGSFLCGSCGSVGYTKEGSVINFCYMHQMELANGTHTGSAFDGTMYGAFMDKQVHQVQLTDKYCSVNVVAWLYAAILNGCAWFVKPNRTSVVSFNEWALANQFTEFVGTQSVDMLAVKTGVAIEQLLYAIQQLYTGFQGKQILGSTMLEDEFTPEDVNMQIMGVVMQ
SMILES,IC50 (MERS-CoV 3CLpro),IC50 (SARS-CoV-2 3CLpro)
CC(C)(C)C[C@@H]1NC(=O)[C@@H](NC(=O)c2ccc(F)c(C(F)(F)F)c2)CCCC[C@H]2CNC(=O)[C@H]2C[C@@H](C#N)NC1=O [Example 142],100 to 1000 nM,100 to 1000 nM
CO[C@@H]1C[C@H]2C(=O)N[C@H](C#N)C[C@@H]3C(=O)NC[C@@H]3CCCC[C@H](NC(=O)OC(C)(C)C)C(=O)N2C1 [Example 147],100 to 1000 nM,< 100 nM
CC1(C)[C@@H]2[C@H]3C(=O)N[C@H](C#N)C[C@@H]4C(=O)NC[C@@H]4CCCC[C@H](NC(=O)C4(C(F)(F)F)CC4)C(=O)N3C[C@@H]21 [Example 117],< 100 nM,< 100 nM
CC1(C)[C@@H]2[C@H]3C(=O)N[C@H](C#N)C[C@@H]4C(=O)NC[C@@H]4CCCC[C@H](NC(=O)CC4CCCC4)C(=O)N3C[C@@H]21 [Example 90],100 to 1000 nM,< 100 nM
CC(C)C[C@@H]1NC(=O)[C@@H](NC(=O)C(C)(C)C)CC/C=C/[C@H]2CNC(=O)[C@H]2C[C@@H](C#N)NC1=O [Example 58],100 to 1000 nM,< 100 nM
CC1(C)[C@@H]2[C@H]3C(=O)N[C@H](C#N)C[C@@H]4C(=O)NC[C@@H]4CCCC[C@H](NC(=O)C4CCOCC4)C(=O)N3C[C@@H]21 [Example 85],< 100 nM,< 100 nM
CCC(C)(C)[C@@H]1NC(=O)[C@@H](NC(=O)OC(C)(C)C)CCCC[C@H]2CNC(=O)[C@H]2C[C@@H](C#N)NC1=O [Example 145],1000 to 20000 nM,1000 to 20000 nM
CC(C)(C)C[C@@H]1NC(=O)[C@@H](NC(=O)C2(C(F)(F)F)CC2)CCCC[C@H]2CNC(=O)[C@H]2C[C@@H](C#N)NC1=O [Example 149],100 to 1000 nM,< 100 nM
CC1(C)[C@@H]2[C@H]3C(=O)N[C@H](C#N)C[C@@H]4C(=O)NC[C@@H]4CCCC[C@H](Nc4cc(C(F)(F)F)ncn4)C(=O)N3C[C@@H]21 [Example 163],100 to 1000 nM,< 100 nM
CC(C)(C)OC(=O)N[C@H]1CC/C=C/[C@H]2CNC(=O)[C@H]2C[C@@H](C#N)NC(=O)[C@@H]2[C@@H]3[C@H](CN2C1=O)C3(C)C [Example 92],< 100 nM,< 100 nM
N#C[C@@H]1C[C@@H]2C(=O)NC[C@@H]2CCCC[C@H](NC(=O)C2(C(F)(F)F)CC2)C(=O)N2C[C@@H]3CCC[C@@H]3[C@H]2C(=O)N1 [Example 150],< 100 nM,< 100 nM
CC(C)C[C@@H]1NC(=O)CCCCCC[C@H]2CNC(=O)[C@@H]2C[C@@H](C=O)NC1=O [Example 48],100 to 1000 nM,100 to 1000 nM
CC(C)C[C@@H]1NC(=O)[C@@H](OC(C)(C)C)CCC[C@H]2CNC(=O)[C@@H]2C[C@@H](C#N)NC1=O [Example 29],> 20000 nM,> 20000 nM
CC(C)C[C@@H]1NC(=O)[C@H](Cc2ccccc2)CCC[C@@H]2CNC(=O)[C@@H]2C[C@@H](C=O)NC1=O [Example 11],1000 to 20000 nM,1000 to 20000 nM
CC(C)C[C@@H]1NC(=O)[C@@H](Cc2ccc(F)cc2)CCCC[C@H]2CNC(=O)[C@H]2C[C@@H](C#N)NC1=O [Example 43],1000 to 20000 nM,1000 to 20000 nM
CC(C)(C)CC(=O)N[C@H]1CCCC[C@H]2CCNC(=O)[C@H]2C[C@@H](C#N)NC(=O)[C@@H]2[C@H]3CCC[C@H]3CN2C1=O [Example 95],100 to 1000 nM,< 100 nM
CC(C)(C)C(=O)N[C@H]1CCCC[C@H]2CNC(=O)[C@H]2C[C@@H](C#N)NC(=O)[C@H](C2CCCC2)NC1=O [Example 80],100 to 1000 nM,100 to 1000 nM
CC(C)C[C@@H]1NC(=O)CCCC[C@@H]2CNC(=O)[C@@H]2C[C@@H](C=O)NC1=O [Example 1],> 20000 nM,1000 to 20000 nM
CC(C)C[C@@H]1NC(=O)CCCCC[C@H]2CNC(=O)[C@@H]2C[C@@H](C=O)NC1=O [Example 32],100 to 1000 nM,100 to 1000 nM
CC(C)(C)OC(=O)N[C@H]1COCCC[C@H]2CNC(=O)[C@H]2C[C@@H](C#N)NC(=O)[C@@H]2[C@@H]3[C@H](CN2C1=O)C3(C)C [Example 102],100 to 1000 nM,< 100 nM
CC1(C)[C@@H]2[C@H]3C(=O)N[C@H](C#N)C[C@@H]4C(=O)NC[C@@H]4CCCC[C@H](NS(=O)(=O)c4ccccc4)C(=O)N3C[C@@H]21 [Example 154],< 100 nM,< 100 nM
CC1(C)[C@@H]2[C@H]3C(=O)N[C@H](C#N)C[C@@H]4C(=O)NC[C@@H]4CCCC[C@H](NC(=O)C4CCC(F)(F)CC4)C(=O)N3C[C@@H]21 [Example 68],< 100 nM,< 100 nM
CC(C)C[C@@H]1NC(=O)CCCCCC[C@H]2CNC(=O)[C@H]2C[C@@H](C=O)NC1=O [Example 45],1000 to 20000 nM,100 to 1000 nM
N#C[C@@H]1C[C@@H]2C(=O)NC[C@@H]2CCCC[C@H](Nc2nccc(C(F)(F)F)n2)C(=O)N2C[C@@H]3CCC[C@@H]3[C@H]2C(=O)N1 [Example 165],100 to 1000 nM,< 100 nM
CC1(C)[C@@H]2[C@H]3C(=O)N[C@H](C#N)C[C@@H]4C(=O)NC[C@@H]4/C=C/CC[C@H](NC(=O)C4CC(F)(F)C4)C(=O)N3C[C@@H]21 [Example 83],< 100 nM,< 100 nM

SMILES,IC50 (MERS-CoV 3CLpro),IC50 (SARS-CoV-2 3CLpro)
N#C[C@@H]1C[C@H]2C(=O)NC[C@@H]2CCCCC(=O)N2C[C@@H]3CCC[C@@H]3[C@H]2C(=O)N1 [Example 26],> 20000 nM,> 20000 nM
CC(C)C[C@@H]1NC(=O)[C@@H](C2CCCC2)CCC[C@H]2CNC(=O)[C@H]2C[C@@H](C=O)NC1=O [Example 13],1000 to 20000 nM,1000 to 20000 nM
CC(C)(C)OC(=O)N[C@H]1CC/C=C\[C@H]2CCNC(=O)[C@H]2CC(C#N)NC(=O)[C@@H]2[C@H]3CCC[C@H]3CN2C1=O (stereo partly shown) [Example 97],100 to 1000 nM,< 100 nM
CC(C)(C)OC(=O)N[C@H]1CCC[C@H]2CNC(=O)[C@H]2C[C@@H](C#N)NC(=O)[C@@H]2[C@@H]3[C@H](CN2C(=O)C1)C3(C)C [Example 125],> 20000 nM,1000 to 20000 nM
CC(C)(C)C(=O)N[C@H]1C/C=C/[C@H]2CNC(=O)[C@H]2C[C@@H](C#N)NC(=O)[C@@H]2[C@@H]3[C@H](CN2C1=O)C3(C)C [Example 63],100 to 1000 nM,< 100 nM
CC(C)C[C@@H]1NC(=O)CCCCC[C@@H]2CNC(=O)[C@H]2C[C@@H](C=O)NC1=O [Example 31],> 20000 nM,> 20000 nM
CC(C)(C)OC(=O)N[C@H]1CCCC[C@H]2CNC(=O)[C@H]2C[C@@H](C#N)NC(=O)[C@@H]2CC(F)(F)CN2C1=O [Example 131],100 to 1000 nM,100 to 1000 nM
Cc1nc(C(=O)N[C@H]2CCCC[C@H]3CNC(=O)[C@H]3C[C@@H](C#N)NC(=O)[C@@H]3[C@@H]4[C@H](CN3C2=O)C4(C)C)co1 [Example 115],< 100 nM,< 100 nM
CC(C)(C)OC(=O)N[C@H]1CCCC[C@H]2CNC(=O)[C@H]2C[C@@H](C#N)NC(=O)[C@H]2N(CC(F)(F)C2(C)C)C1=O [Example 146],100 to 1000 nM,100 to 1000 nM
CC(C)C[C@@H]1NC(=O)[C@@H](Cc2ccccc2)CCC[C@H]2CNC(=O)[C@@H]2C[C@@H](C=O)NC1=O [Example 17],100 to 1000 nM,100 to 1000 nM
CC(C)C[C@@H]1NC(=O)CCCCC[C@H]2CCNC(=O)[C@@H]2C[C@@H](C=O)NC1=O [Example 34],1000 to 20000 nM,100 to 1000 nM
CC(C)(C)C(=O)N[C@H]1CCCC[C@H]2CNC(=O)[C@@H]2C[C@@H](C#N)NC(=O)[C@@H]2[C@@H]3[C@H](CN2C1=O)C3(C)C [Example 67],100 to 1000 nM,100 to 1000 nM
CC1(C)[C@@H]2[C@H]3C(=O)N[C@H](C#N)C[C@@H]4C(=O)NC[C@@H]4CCCC[C@H](NC(=O)c4ccc(F)cc4F)C(=O)N3C[C@@H]21 [Example 103],< 100 nM,< 100 nM
CC(C)(C)C[C@@H]1NC(=O)[C@@H](NC(=O)OC(C)(C)C)CCCC[C@H]2CNC(=O)[C@H]2C[C@@H](C#N)NC1=O [Example 60],100 to 1000 nM,< 100 nM
CC1(C)C[C@H]2C(=O)N[C@H](C#N)C[C@@H]3C(=O)NC[C@@H]3CCCC[C@H](NC(=O)OC(C)(C)C)C(=O)N2C1 [Example 130],100 to 1000 nM,100 to 1000 nM
CC1(C)[C@@H]2[C@H]3C(=O)N[C@H](C#N)C[C@@H]4C(=O)NC[C@@H]4/C=C/CC[C@H](NC(=O)C(F)(F)F)C(=O)N3C[C@@H]21 [Example 108],< 100 nM,< 100 nM
CC(C)(C)OC(=O)NN1CCCC[C@H]2CNC(=O)[C@H]2C[C@@H](C#N)NC(=O)[C@@H]2[C@@H]3[C@H](CN2C1=O)C3(C)C [Example 168],1000 to 20000 nM,1000 to 20000 nM
CC(C)C[C@@H]1NC(=O)[C@@H](Cc2ccc(F)cc2)CCCC[C@@H]2CNC(=O)[C@@H]2C[C@@H](C#N)NC1=O [Example 42],1000 to 20000 nM,1000 to 20000 nM
CC(C)C[C@@H]1NC(=O)[C@@H](NC(=O)C(C)(C)C)CCCC[C@H]2CNC(=O)[C@@H]2C[C@@H](C#N)NC1=O [Example 54],100 to 1000 nM,100 to 1000 nM
CC1(C)[C@@H]2[C@H]3C(=O)N[C@H](C#N)C[C@@H]4C(=O)NCC[C@@H]4CCCC[C@H](NC(=O)OC4CCCC4)C(=O)N3C[C@@H]21 [Example 124],< 100 nM,< 100 nM
CC(C)C[C@@H]1NC(=O)[C@@H](NC(=O)C(C)(C)C)CC/C=C\[C@H]2CNC(=O)[C@H]2C[C@@H](C#N)NC1=O [Example 59],1000 to 20000 nM,100 to 1000 nM
CC(C)(C)NC(=O)[C@H]1CCCC[C@H]2CNC(=O)[C@H]2C[C@@H](C#N)NC(=O)[C@@H]2[C@@H]3[C@H](CN2C1=O)C3(C)C [Example 167],1000 to 20000 nM,100 to 1000 nM
CC(C)(C)OC(=O)N[C@H]1CCCC[C@H]2CNC(=O)[C@H]2C[C@@H](C#N)NC(=O)[C@@H]2[C@H]3CC[C@H](C3)N2C1=O [Example 127],1000 to 20000 nM,1000 to 20000 nM
CC(C)C[C@@H]1NC(=O)CCCCCC[C@H]2CNCC(=O)[C@@H]2C[C@@H](C=O)NC1=O [Example 52],1000 to 20000 nM,100 to 1000 nM
CC(C)C[C@@H]1NC(=O)[C@@H](CC2CCCC2)CCC[C@H]2CNC(=O)[C@@H]2C[C@@H](C=O)NC1=O [Example 18],100 to 1000 nM,100 to 1000 nM
